The values that follow come from patent publication US12678440B2, “Compositions and methods for treating misfolded protein ocular disorders” (CASE WESTERN RESERVE UNIVERSITY, priority 2020, dated 2026).

The conditions of data set [1]: cited from earlier work.
The test system of the next data set is P23H rhodopsin. The data set can be described thus: Immunoblot of rhodopsin, MTX plus BafA1 or MG-132, NIH3T3 (RHO^P23H/GFP) cells. The class given is cell-based. Conditions: 10 μM MTX + 100 nM BafA1, 24 h. As to the method:
Cells were seeded in 6-well plates at a density of 5×10^5 cells/well and cultured at 37° C. with 5% CO2 for 17 h. The medium was replaced with a fresh medium containing a corresponding concentration of compounds. After treatment for 24 h, cells collected and lysed in 150 μL PBS containing 0.1% SDS and complete protease inhibitor cocktail with 12 s of sonication on ice. Retina samples were lysed in 300 μL per retina of PBS containing 0.1% SDS and complete protease inhibitor cocktail under 24 s of sonication on ice. Protein concentrations were determined by measurements of OD280 nm using a Nanodrop spectrometer. To immunoblot rhodopsin, one hundred μg of total protein for NIH3T3 (RHO^P23H/GFP) cells, or twenty μg of total protein for NIH3T3 (RHO^WT/GFP) cells was loaded per well onto an SDS-PAGE gel. To detect other proteins, fifty μg of total protein was loaded per well. After separation by electrophoresis in 10% and 16% SDS-PAGE gels, proteins were transferred to a nitrocellulose membrane using a wet membrane electrotransfer cassette followed by blocking with 5% bovine serum albumin in PBS containing 0.05% Tween 20 for 1 h. The membranes were incubated with primary antibodies at 4° C. overnight following with appropriate secondary antibodies for 1 h at room temperature. […]

A short description of data set [2]: Estimated initial vitreous concentration after IVI. Particulars: mouse vitreous volume about 5.3 μL.
A further data set deals with Rho^P23H/+ mice. Kind of data set: Electroretinogram (ERG) after intravitreal injection. The class given is in vivo, mouse. Here is the method: The C57BL/6J (Rho^+/+) mice and Rho^P23H/P23H mice were purchased from Jackson Laboratory (Stock No 017628) generated by Dr. Krzysztof Palczewski's lab. The Rho^P23H/P23H mice were crossed with wild-type C57BL/6J mice to produce P23H heterozygotes mice. Genotyping for all strains was conducted as guided using forward and reverse primers: 1) GGTAGCACTGTTGGGCATCT (SEQ ID NO: 5); and 2) GACCCCACAGAGACAAGCTC (SEQ ID NO: 6), respectively. The PCR products at 573 and 399 bp indicated the P23H knock-in mutant and WT allele of the RHO gene, respectively. Mice were bred and housed under standard 12-h light/12-h dark conditions in the University of Pittsburgh animal facility. All animal experiments were approved by the University of Pittsburgh Institutional Animal Care and Use Committee (IACUC) following the guide for the Animal Welfare Act and Regulations.
To determine the effect of compounds on retina in vivo, we administered compounds directly into the vitreous space. Briefly, mice were treated with 1% tropicamide eye drops (Akorn, Lake Forest, IL USA) to dilate the pupils and then they were anesthetized with an intraperitoneal injection of ketamine (Henry Schein, Dublin, OH USA) at 80 mg/kg body weight (bw) and xylazine (Bimeda, Le Sueur, MN USA) at 7 mg/kg bw. One drop of 0.5% tetracaine hydrochloride (TCI, Tokyo, Japan) was applied to mouse eyes as topical anesthetics before injection. Eyes were kept lubricated during the injections by a 0.3% hypromellose eye gel (Alcon, Fort Worth, TX USA). A heating pad was used for maintaining body temperature. Mice were positioned to expose the sclera of the eyes. A 30-gauge needle (Medline, Northfield, IL USA) was used to puncture a hole through sclera behind limbus at a 45° angle. A 33-gauge blunt-end needle (Hamilton, Reno, NV USA) was used to be inserted into the hole and a total of 0.5 μL of sterile PBS or MTX in PBS was slowly injected into the posterior chamber and the needle was kept in place for about 30 seconds before a slow removal of the needle. A small amount of Triantibiotic ointment (Medline, Northfield, IL USA) was applied on the injection site to prevent infection. A single IVI with 25 or 100 pmol of MTX was administered to one eye of each Rho^P23H/+ mice at postnatal day (PND) 15, and PBS was injected to the other eye as vehicle control. We also performed four weekly IVIs of MTX or PBS to the second group of Rho^P23H/+ mouse eyes at PND 15, 22, 29 and 36.
ERG was performed using the Celeris system (Diagnosys, Lowell, MA, USA), as described previously. Before each test, mice were kept in the dark overnight. Pupils were dilated with 1% tropicamide (Akorn, Lake Forest, IL, USA). Mice were anesthetized with an intraperitoneal injection of ketamine at 80 mg/kg bw and xylazine at 7 mg/kg bw. Eyes were lubricated by a 0.3% hypromellose eye gel (Alcon, Fort Worth, TX, USA). A heating pad was used to maintain body temperature at 37° C. Scotopic ERG responses of dark-adapted eyes to ten flashes from 0.01 cd·s/m^2 to 30 cd·s/m^2 were recorded and averaged from three sweeps per flash intensity with inter-sweep intervals of 10 to 30 s. After exposed to 10 cd/m^2 illumination for 5 min, the photopic ERG responses were recorded from the light-adapted eyes in respond to flashes from 0.01 cd·s/m^2 to 30 cd·s/m^2 in addition to a 10 cd/m^2 background light. P-values were calculated by a two-way ANOVA to determine the statistical significance between the response amplitudes in the MTX-treated and vehicle (PBS) group. Factor 1, treatment condition; and factor 2, flash intensity.

The mark [3] stands for this setting: single IVI 25 pmol at PND 15, ERG at PND 32, vs PBS or non-treated.
Setting [4] is: single IVI 100 pmol at PND 15, ERG at PND 32.

Each structure is given as a SMILES string.

For `CN(Cc1cnc2nc(N)nc(N)c2n1)c1ccc(C(=O)N[C@@H](CCC(=O)O)C(=O)O)cc1` [CL-009, N-[4-[[(2,4-diamino-6-pteridinyl)methyl]methylamino]benzoyl]-L-glutamic acid], the water solubility entry in data set [1] is “water-soluble”. Also, the “MTX induced P23H rhodopsin clearance under BafA1 co-treatment (immunoblot)” value in the data set on P23H rhodopsin is recorded as “abolished”. For the same compound, the vitreous concentration result in data set [2] (25 pmol IVI) is on record as “about 4.7 μM”. Also, the initial vitreous concentration in data set [2] (100 pmol IVI) is 18.9 µM. In addition, the “multi-flash scotopic and photopic b-waves” value in the data set on Rho^P23H/+ mice (four weekly IVIs from PND 15, ERG at PND 44, vs PBS) is recorded as “significantly increased”. Further, in the data set with Rho^P23H/+ mice (four weekly IVIs of 100 pmol, vs PBS, at higher flash intensities), the photopic b-waves entry is recorded as “higher”. Besides, the “multi-flash scotopic ERG a- and b-waves” value in the data set with Rho^P23H/+ mice (setting [3]) is on record as “significantly higher”; with Rho^P23H/+ mice (setting [4]), “no effect”. Besides, the “photopic ERG responses” value in the data set on Rho^P23H/+ mice (setting [3]) is reported as “higher”; in the data set with Rho^P23H/+ mice (setting [4]), “did not show any effects”. Further, in the data set on Rho^P23H/+ mice (single IVI 25 or 100 pmol), the “ratio of scotopic and photopic b- to a-wave amplitudes” value is recorded as “not affected”.
